Results taken from ChEMBL document CHEMBL1155060, “Discovery of brain penetrant, soluble, pyrazole amide EP1 receptor antagonists” (Bioorg Med Chem Lett, 2008).

test system: not listed separately; assay: Solubility in fed state simulated intestinal fluid after 2 hrs; format: physicochemical; conditions: not given

| SMILES | solubility at 2 h [µg/mL] |
| --- | --- |
| Cc1cc(NC(=O)c2ccc(CN3CCCC3)cc2)nn1Cc1cc(Cl)ccc1OCC(C)C.Cl | 520 |
| CCNCc1ccc(C(=O)Nc2cc(C)n(Cc3cc(Cl)ccc3OCC(C)C)n2)cc1.Cl | 154 |
| Cc1cc(NC(=O)c2ccc(CN3CCCCC3)cc2)nn1Cc1cc(Cl)ccc1OCC(C)C.Cl | 240 |

test system: not listed separately; assay: Drug level in rat blood at 3 mg/kg, po after 3 hrs; format: ADME, organism-based; design: dose 3 mg/kg, route oral; conditions: read-out: Drug uptake

| SMILES | concentration at 3 h [nM] |
| --- | --- |
| CCNCc1ccc(C(=O)Nc2cc(C)n(Cc3cc(Cl)ccc3OCC(C)C)n2)cc1.Cl | 114 |

test system: not listed separately; assay: Solubility in water after 1 hr; format: physicochemical; conditions: not given

| SMILES | solubility at 1 h [µg/mL] |
| --- | --- |
| Cc1cc(C(=O)Nc2ccc(CN3CCCCC3)cc2)nn1Cc1cc(Cl)ccc1OCc1ccccc1.Cl | 373 |
| CNCc1ccc(NC(=O)c2cc(C)n(Cc3cc(Cl)ccc3OCc3ccccc3)n2)cc1.Cl | 253 |
| CNCc1ccc(NC(=O)c2cc(C)n(Cc3cc(Cl)ccc3OCC(C)C)n2)cc1.Cl | 474 |
| Cc1cc(C(=O)Nc2ccc(CN3CCCCC3)cc2)nn1Cc1cc(Cl)ccc1OCC(C)C.Cl | 811 |
| CCNCc1ccc(NC(=O)c2cc(C)n(Cc3cc(Cl)ccc3OCC(C)C)n2)cc1.Cl | > 1000 |

test system: not listed separately; assay: Solubility in water after 2 hrs; format: physicochemical; conditions: not given

| SMILES | solubility at 2 h [µg/mL] |
| --- | --- |
| Cc1cc(NC(=O)c2ccc(CN3CCCC3)cc2)nn1Cc1cc(Cl)ccc1OCC(C)C.Cl | > 1000 |
| CCNCc1ccc(C(=O)Nc2cc(C)n(Cc3cc(Cl)ccc3OCC(C)C)n2)cc1.Cl | 690 |
| Cc1cc(NC(=O)c2ccc(CN3CCCCC3)cc2)nn1Cc1cc(Cl)ccc1OCC(C)C.Cl | > 1000 |

test system: not listed separately; assay: Ratio of drug level in brain to blood in rat at 10 mg/kg, po after 1 hr; format: ADME, organism-based; design: dose 10 mg/kg, route oral; conditions: not given

| SMILES | Kp at 1 h |
| --- | --- |
| Cc1cc(NC(=O)c2ccc(CN3CCCC3)cc2)nn1Cc1cc(Cl)ccc1OCC(C)C.Cl | 1.2 |
| CCNCc1ccc(C(=O)Nc2cc(C)n(Cc3cc(Cl)ccc3OCC(C)C)n2)cc1.Cl | 0.8 |

test system: not listed separately; assay: Drug level in rat blood at 10 mg/kg, po after 1 hr; format: ADME, organism-based; design: dose 10 mg/kg, route oral; conditions: read-out: Drug uptake

| SMILES | concentration at 1 h [nM] |
| --- | --- |
| CCNCc1ccc(C(=O)Nc2cc(C)n(Cc3cc(Cl)ccc3OCC(C)C)n2)cc1.Cl | 107 |

target: T1, Prostaglandin E2 receptor EP1 subtype (Homo sapiens, UniProt P34995); assay: Antagonist activity of human PGE2 receptor expressed in CHOK1 cells assessed as inhibition of intracellular calcium mobilisation by FLIPR assay; format: functional, cell-based, CHO-K1; conditions: not given
T1 sequence (P34995 whole entry): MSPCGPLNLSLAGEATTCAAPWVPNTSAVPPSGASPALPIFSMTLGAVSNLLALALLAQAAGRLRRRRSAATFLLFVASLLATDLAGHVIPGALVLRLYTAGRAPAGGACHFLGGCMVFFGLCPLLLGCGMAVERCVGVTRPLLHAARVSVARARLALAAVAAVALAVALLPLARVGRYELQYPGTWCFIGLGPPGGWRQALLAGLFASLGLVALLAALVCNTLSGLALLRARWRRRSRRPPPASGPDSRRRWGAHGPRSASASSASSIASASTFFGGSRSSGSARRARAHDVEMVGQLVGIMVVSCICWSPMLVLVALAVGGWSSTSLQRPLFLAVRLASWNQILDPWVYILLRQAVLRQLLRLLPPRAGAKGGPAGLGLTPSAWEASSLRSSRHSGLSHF

| SMILES | Ki [µM] |
| --- | --- |
| Cc1cc(C(=O)Nc2ccc(CN3CCOCC3)cc2)nn1Cc1cc(Cl)ccc1OCc1ccccc1 | 0.0794 |
| CNCc1ccc(NC(=O)c2cc(C)n(Cc3cc(Cl)ccc3OCc3ccccc3)n2)cc1.Cl | 0.126 |
| Cc1cc(NC(=O)c2ccc(CN3CCCC3)cc2)nn1Cc1cc(Cl)ccc1OCC(C)C.Cl | 0.158 |
| CCNCc1ccc(C(=O)Nc2cc(C)n(Cc3cc(Cl)ccc3OCC(C)C)n2)cc1.Cl | 0.158 |
| CNCc1ccc(NC(=O)c2cc(C)n(Cc3cc(Cl)ccc3OCC(C)C)n2)cc1.Cl | 0.0794 |

test system: not listed separately; assay: Solubility in fasted state simulated intestinal fluid after 2 hrs; format: physicochemical; conditions: not given

| SMILES | solubility at 2 h [µg/mL] |
| --- | --- |
| CCNCc1ccc(C(=O)Nc2cc(C)n(Cc3cc(Cl)ccc3OCC(C)C)n2)cc1.Cl | 14 |
| Cc1cc(NC(=O)c2ccc(CN3CCCCC3)cc2)nn1Cc1cc(Cl)ccc1OCC(C)C.Cl | 90 |

test system: not listed separately; assay: Ratio of drug level in brain to blood in rat at 3 mg/kg, po after 3 hrs; format: ADME, organism-based; design: dose 3 mg/kg, route oral; conditions: not given

| SMILES | Kp at 3 h |
| --- | --- |
| Cc1cc(NC(=O)c2ccc(CN3CCCC3)cc2)nn1Cc1cc(Cl)ccc1OCC(C)C.Cl | 2 |
| CCNCc1ccc(C(=O)Nc2cc(C)n(Cc3cc(Cl)ccc3OCC(C)C)n2)cc1.Cl | 0.9 |

test system: not listed separately; assay: Solubility in simulated gastric fluid after 1 hr; format: physicochemical; conditions: not given

| SMILES | solubility at 1 h [µg/mL] |
| --- | --- |
| CNCc1ccc(NC(=O)c2cc(C)n(Cc3cc(Cl)ccc3OCC(C)C)n2)cc1.Cl | 364 |
| Cc1cc(C(=O)Nc2ccc(CN3CCCCC3)cc2)nn1Cc1cc(Cl)ccc1OCC(C)C.Cl | 662 |
| CCNCc1ccc(NC(=O)c2cc(C)n(Cc3cc(Cl)ccc3OCC(C)C)n2)cc1.Cl | 905 |

test system: not listed separately; assay: Solubility in fasted state simulated intestinal fluid after 1 hr; format: physicochemical; conditions: not given

| SMILES | solubility at 1 h [µg/mL] |
| --- | --- |
| CNCc1ccc(NC(=O)c2cc(C)n(Cc3cc(Cl)ccc3OCc3ccccc3)n2)cc1.Cl | 57 |
| CNCc1ccc(NC(=O)c2cc(C)n(Cc3cc(Cl)ccc3OCC(C)C)n2)cc1.Cl | 483 |
| Cc1cc(C(=O)Nc2ccc(CN3CCCCC3)cc2)nn1Cc1cc(Cl)ccc1OCC(C)C.Cl | 164 |
| CCNCc1ccc(NC(=O)c2cc(C)n(Cc3cc(Cl)ccc3OCC(C)C)n2)cc1.Cl | 812 |

test system: not listed separately; assay: Permeability across MDCK cells; format: ADME, cell-based, Canis lupus familiaris; conditions: dog, read-out: permeability

| SMILES | Papp [×10⁻⁶ cm/s] |
| --- | --- |
| CNCc1ccc(NC(=O)c2cc(C)n(Cc3cc(Cl)ccc3OCc3ccccc3)n2)cc1.Cl | 31.8 |
| Cc1cc(NC(=O)c2ccc(CN3CCCC3)cc2)nn1Cc1cc(Cl)ccc1OCC(C)C.Cl | 36 |
| CCNCc1ccc(C(=O)Nc2cc(C)n(Cc3cc(Cl)ccc3OCC(C)C)n2)cc1.Cl | 52.1 |

test system: not listed separately; assay: Volume of distribution at steady state in rat at 1 mg/kg, iv; format: ADME, organism-based; design: dose 1 mg/kg, route intravenous; conditions: in vivo, read-out: Vdss

| SMILES | Vd [L/kg] |
| --- | --- |
| CNCc1ccc(NC(=O)c2cc(C)n(Cc3cc(Cl)ccc3OCc3ccccc3)n2)cc1.Cl | 9.7 |
| Cc1cc(NC(=O)c2ccc(CN3CCCC3)cc2)nn1Cc1cc(Cl)ccc1OCC(C)C.Cl | 4.6 |
| CCNCc1ccc(C(=O)Nc2cc(C)n(Cc3cc(Cl)ccc3OCC(C)C)n2)cc1.Cl | 6.3 |

test system: not listed separately; assay: Solubility in fed state simulated intestinal fluid after 1 hr; format: physicochemical; conditions: not given

| SMILES | solubility at 1 h [µg/mL] |
| --- | --- |
| Cc1cc(C(=O)Nc2ccc(CN3CCCCC3)cc2)nn1Cc1cc(Cl)ccc1OCc1ccccc1.Cl | 64 |
| CNCc1ccc(NC(=O)c2cc(C)n(Cc3cc(Cl)ccc3OCc3ccccc3)n2)cc1.Cl | 185 |
| CNCc1ccc(NC(=O)c2cc(C)n(Cc3cc(Cl)ccc3OCC(C)C)n2)cc1.Cl | 589 |
| Cc1cc(C(=O)Nc2ccc(CN3CCCCC3)cc2)nn1Cc1cc(Cl)ccc1OCC(C)C.Cl | 315 |
| CCNCc1ccc(NC(=O)c2cc(C)n(Cc3cc(Cl)ccc3OCC(C)C)n2)cc1.Cl | > 1000 |

test system: Liver microsomes; assay: Metabolic stability assessed as intrinsic clearance in rat liver microsomes; format: ADME, Microsome; conditions: not given

| SMILES | CL [mL/min/g] |
| --- | --- |
| CNCc1ccc(NC(=O)c2cc(C)n(Cc3cc(Cl)ccc3OCc3ccccc3)n2)cc1.Cl | 1.8 |
| Cc1cc(NC(=O)c2ccc(CN3CCCC3)cc2)nn1Cc1cc(Cl)ccc1OCC(C)C.Cl | 3.2 |
| CCNCc1ccc(C(=O)Nc2cc(C)n(Cc3cc(Cl)ccc3OCC(C)C)n2)cc1.Cl | 1.8 |

test system: not listed separately; assay: Blood clearance in rat at 1 mg/kg, iv; format: ADME, organism-based; design: dose 1 mg/kg, route intravenous; conditions: not given

| SMILES | clearance [mL/min/kg] |
| --- | --- |
| CNCc1ccc(NC(=O)c2cc(C)n(Cc3cc(Cl)ccc3OCc3ccccc3)n2)cc1.Cl | 46 |
| Cc1cc(NC(=O)c2ccc(CN3CCCC3)cc2)nn1Cc1cc(Cl)ccc1OCC(C)C.Cl | 46 |
| CCNCc1ccc(C(=O)Nc2cc(C)n(Cc3cc(Cl)ccc3OCC(C)C)n2)cc1.Cl | 29 |

test system: not listed separately; assay: Half life in rat at 1 mg/kg, iv; format: ADME, organism-based; design: dose 1 mg/kg, route intravenous; conditions: in vivo

| SMILES | half-life [h] |
| --- | --- |
| CNCc1ccc(NC(=O)c2cc(C)n(Cc3cc(Cl)ccc3OCc3ccccc3)n2)cc1.Cl | 3 |
| Cc1cc(NC(=O)c2ccc(CN3CCCC3)cc2)nn1Cc1cc(Cl)ccc1OCC(C)C.Cl | 1.4 |
| CCNCc1ccc(C(=O)Nc2cc(C)n(Cc3cc(Cl)ccc3OCC(C)C)n2)cc1.Cl | 2.8 |

test system: not listed separately; assay: Solubility in simulated gastric fluid after 2 hrs; format: physicochemical; conditions: not given

| SMILES | solubility at 2 h [µg/mL] |
| --- | --- |
| CCNCc1ccc(C(=O)Nc2cc(C)n(Cc3cc(Cl)ccc3OCC(C)C)n2)cc1.Cl | 62 |
| Cc1cc(NC(=O)c2ccc(CN3CCCCC3)cc2)nn1Cc1cc(Cl)ccc1OCC(C)C.Cl | 30 |

test system: not listed separately; assay: Ratio of drug level in brain to blood in rat at 5 mg/kg, po after 3 hrs; format: ADME, organism-based; design: dose 5 mg/kg, route oral; conditions: not given

| SMILES | Kp at 3 h |
| --- | --- |
| CNCc1ccc(NC(=O)c2cc(C)n(Cc3cc(Cl)ccc3OCc3ccccc3)n2)cc1.Cl | 1.4 |

target: T1, Prostaglandin E2 receptor EP1 subtype; assay: Displacement of [H3PGE2 from human EP1 receptor expressed in CHOK1 cells; format: cell-based, CHO-K1; conditions: not given

| SMILES | IC50 [µM] |
| --- | --- |
| Cc1cc(C(=O)Nc2ccc(CN3CCOCC3)cc2)nn1Cc1cc(Cl)ccc1OCc1ccccc1 | 0.01 |
| Cc1cc(C(=O)Nc2ccc(CN3CCCCC3)cc2)nn1Cc1cc(Cl)ccc1OCc1ccccc1.Cl | 0.0126 |
| CNCc1ccc(NC(=O)c2cc(C)n(Cc3cc(Cl)ccc3OCc3ccccc3)n2)cc1.Cl | 0.0126 |
| Cc1cc(NC(=O)c2ccc(CN3CCCC3)cc2)nn1Cc1cc(Cl)ccc1OCC(C)C.Cl | 0.0501 |
| CCNCc1ccc(C(=O)Nc2cc(C)n(Cc3cc(Cl)ccc3OCC(C)C)n2)cc1.Cl | 0.1 |
| CNCc1ccc(NC(=O)c2cc(C)n(Cc3cc(Cl)ccc3OCC(C)C)n2)cc1.Cl | 0.00794 |
| Cc1cc(NC(=O)c2ccc(CN3CCCCC3)cc2)nn1Cc1cc(Cl)ccc1OCC(C)C.Cl | 0.0398 |
| Cc1cc(C(=O)Nc2ccc(CN3CCCCC3)cc2)nn1Cc1cc(Cl)ccc1OCC(C)C.Cl | 0.00631 |
| CCNCc1ccc(NC(=O)c2cc(C)n(Cc3cc(Cl)ccc3OCC(C)C)n2)cc1.Cl | 0.00794 |
